Columns and labels:
Test in all cases: relative viability (nuclei count vs DMSO), 5 days (fraction); higher = more cells survive
XMD14-99 + Dasatinib = compound: CN1CCN(CC1)C2=CC(=C(C=C2)NC3=NC(=C(S3)C(=O)C4=C(C=CC=C4Cl)Cl)N)OC [XMD14-99] + Cc1nc(Nc2ncc(C(=O)Nc3c(C)cccc3Cl)s2)cc(N2CCN(CCO)CC2)n1 [Dasatinib] (partner 0.075 µM)
In short: (§1)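 Lung cancer cell lines were pin-tool dosed in 1536-well plates on the day after seeding, with either a lone drug or a fixed anchor-drug dose plus five library-drug doses (not always all listed) in √10 steps. Nuclei were counted on 4× images after 5 days. Relative viability is the ratio of treated-well to vehicle-well nuclei counts, with each value a median of duplicate plates.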

AZD1208 + Alpelisib = compound: N[C@@H]1CCCN(c2c(/C=C3\SC(=O)NC3=O)cccc2-c2ccccc2)C1 [AZD1208] + Cc1nc(NC(=O)N2CCC[C@H]2C(N)=O)sc1-c1ccnc(C(C)(C)C(F)(F)F)c1 [Alpelisib] (partner 2 µM)
In short: as §1

AZD1208 + Vorinostat = compound: N[C@@H]1CCCN(c2c(/C=C3\SC(=O)NC3=O)cccc2-c2ccccc2)C1 [AZD1208] + O=C(CCCCCCC(=O)Nc1ccccc1)NO [Vorinostat] (partner 1 µM)
In short: as §1

AZD1208 + OSI-027 = compound: N[C@@H]1CCCN(c2c(/C=C3\SC(=O)NC3=O)cccc2-c2ccccc2)C1 [AZD1208] + COc1cccc2cc(-c3nc([C@H]4CC[C@H](C(=O)O)CC4)n4ncnc(N)c34)[nH]c12 [OSI-027] (partner 0.5 µM)
In short: as §1

Row | Cell Line | relative viability (XMD14-99 + Dasatinib; first compound 0.08 µM) | relative viability (XMD14-99 + Dasatinib; first compound 0.8 µM) | relative viability (XMD14-99 + Dasatinib; first compound 2.53 µM) | relative viability (XMD14-99 + Dasatinib; first compound 8 µM) | relative viability (AZD1208 + Alpelisib; first compound 0.08 µM) | relative viability (AZD1208 + Alpelisib; first compound 0.253 µM) | relative viability (AZD1208 + Alpelisib; first compound 0.8 µM) | relative viability (AZD1208 + Alpelisib; first compound 2.53 µM) | relative viability (AZD1208 + Alpelisib; first compound 8 µM) | relative viability (AZD1208 + Vorinostat; first compound 0.08 µM) | relative viability (AZD1208 + Vorinostat; first compound 0.253 µM) | relative viability (AZD1208 + Vorinostat; first compound 0.8 µM) | relative viability (AZD1208 + Vorinostat; first compound 2.53 µM) | relative viability (AZD1208 + Vorinostat; first compound 8 µM) | relative viability (AZD1208 + OSI-027; first compound 0.08 µM) | relative viability (AZD1208 + OSI-027; first compound 0.253 µM) | relative viability (AZD1208 + OSI-027; first compound 0.8 µM) | relative viability (AZD1208 + OSI-027; first compound 2.53 µM) | relative viability (AZD1208 + OSI-027; first compound 8 µM)
1 | HCC-78 | 0.421 | 0.299 | 0.431 | 0.239 | 0.329 | 0.339 | 0.27 | 0.257 | 0.266 | 0.435 | 0.444 | 0.413 | 0.403 | 0.37 | 0.41 | 0.395 | 0.375 | 0.374 | 0.332
2 | LOU-NH91 | 0.591 | 0.584 | 0.541 | 0.472 | 0.72 | 0.719 | 0.632 | 0.681 | 0.673 | 0.965 | 0.955 | 0.864 | 0.838 | 0.865 | 0.737 | 0.577 | 0.631 | 0.694 | 0.619
3 | NCI-H322M | 0.275 | 0.252 | 0.257 | 0.248 | 0.718 | 0.718 | 0.75 | 0.73 | 0.821 | 0.934 | 0.868 |  | 0.837 | 0.821 | 0.569 | 0.514 | 0.459 | 0.508 | 0.462
4 | HCC-827 | 0.322 | 0.281 | 0.309 | 0.256 | 0.969 | 1.04 | 0.915 | 0.859 | 0.893 | 0.991 | 0.904 | 0.861 | 0.839 | 0.78 | 0.688 | 0.751 | 0.707 | 0.617 | 0.667
5 | SW 1573 | 0.401 | 0.42 | 0.52 | 0.325 | 0.65 | 0.705 | 0.595 | 0.505 | 0.592 | 0.505 | 0.862 | 0.456 | 0.479 | 0.404 | 0.397 | 0.548 | 0.451 | 0.381 | 0.348
6 | NCI-H1975 | 0.307 | 0.304 | 0.312 | 0.248 | 0.603 | 0.64 | 0.617 | 0.63 | 0.607 | 0.708 | 0.799 | 0.705 | 0.735 | 0.767 | 0.682 | 0.688 | 0.68 | 0.758 | 0.594
7 | NCI-H1651 | 0.565 | 0.435 | 0.368 | 0.257 | 0.848 | 0.921 | 0.785 | 0.732 | 0.677 | 0.583 | 0.602 |  | 0.561 | 0.556 | 0.679 | 0.878 | 0.534 | 0.595 | 0.503
8 | NCI-H460 | 0.497 | 0.545 | 0.475 | 0.475 | 0.502 | 0.408 | 0.458 | 0.46 | 0.409 | 0.731 | 0.858 | 0.732 | 0.708 | 0.737 | 0.59 | 0.853 | 0.633 | 0.647 | 0.477
9 | LCLC-103H | 0.383 | 0.582 | 0.472 | 0.442 | 0.904 | 0.985 | 0.863 | 0.884 | 0.774 | 0.772 | 0.858 | 0.789 | 0.613 | 0.697 | 0.485 | 0.371 | 0.378 | 0.382 | 0.376
